Several values for one entry are separate records, joined by “and”; a condition that tells them apart may be missing. Equal values may be shown once. ± gives the uncertainty stated by the source.
Experiment: xn = mol fraction of the nth substance listed

CC(=O)CC(C)C + ClC(Cl)Cl
298.15 K, 101 kPa
Settings	viscosity [mPa·s]
x2 = 0.0813	0.5611 ± 0.0053
x2 = 0.1599	0.5799 ± 0.0055
x2 = 0.2352	0.5986 ± 0.0057
x2 = 0.3916	0.6341 ± 0.006
x2 = 0.497	0.6494 ± 0.0062
x2 = 0.6114	0.6521 ± 0.0063
x2 = 0.7252	0.6349 ± 0.0063
x2 = 0.864	0.5903 ± 0.006
x2 = 0.9291	0.5613 ± 0.0057

CCOCC + c1ccccc1
Settings	viscosity
293.15 K, 101 kPa, x2 = 0.24	0.3 ± 0.008 mPa·s
293.15 K, 101 kPa, x2 = 0.49	0.381 ± 0.01 mPa·s
293.15 K, 101 kPa, x2 = 0.74	0.482 ± 0.013 mPa·s
293.15 K, 101.33 kPa, x1 = 0.2	0.504 ± 0.005 mPa·s and 0.504 ± 0.014 mPa·s
293.15 K, 101.33 kPa, x1 = 0.4	0.407 ± 0.011 mPa·s
293.15 K, 101.33 kPa, x1 = 0.5	0.371 ± 0.0037 mPa·s and 0.371 ± 0.01 mPa·s
293.15 K, 101.33 kPa, x1 = 0.6	0.339 ± 0.009 mPa·s
293.15 K, 101.33 kPa, x1 = 0.8	0.289 ± 0.008 mPa·s
298.15 K, 101 kPa, x1 = 0.2529	0.438 ± 0.012 mPa·s
298.15 K, 101 kPa, x1 = 0.4438	0.362 ± 0.01 mPa·s
298.15 K, 101 kPa, x1 = 0.7248	0.282 ± 0.008 mPa·s
298.15 K, 101 kPa, x2 = 0.24	0.288 ± 0.008 mPa·s
298.15 K, 101 kPa, x2 = 0.275	0.282 ± 0.004 mPa·s
298.15 K, 101 kPa, x2 = 0.49	0.366 ± 0.01 mPa·s
298.15 K, 101 kPa, x2 = 0.5563	0.362 ± 0.005 mPa·s
298.15 K, 101 kPa, x2 = 0.74	0.455 ± 0.012 mPa·s
298.15 K, 101 kPa, x2 = 0.7471	0.438 ± 0.006 mPa·s
303.15 K, 101 kPa, x2 = 0.24	0.278 ± 0.008 mPa·s
303.15 K, 101 kPa, x2 = 0.49	0.346 ± 0.009 mPa·s
303.15 K, 101 kPa, x2 = 0.74	0.43 ± 0.012 mPa·s
308.15 K, 101 kPa, x2 = 0.49	0.322 ± 0.009 mPa·s
308.15 K, 101 kPa, x2 = 0.74	0.408 ± 0.011 mPa·s

CC(C)CC(C)(C)C + CCCCCCCCCC
298.15 K, 101 kPa
Settings	viscosity [mPa·s]
x1 = 0.08287	0.7981 ± 0.008
x1 = 0.2249	0.7573 ± 0.0076
x1 = 0.3493	0.7059 ± 0.0071
x1 = 0.4309	0.6689 ± 0.0067
x1 = 0.5526	0.6214 ± 0.0063
x1 = 0.6412	0.5981 ± 0.006
x1 = 0.735	0.5645 ± 0.0057
x1 = 0.8255	0.5303 ± 0.0053
x1 = 0.8936	0.512 ± 0.0052
x1 = 0.9357	0.4966 ± 0.005

CC(=O)CC(C)C + CS(C)=O
303.15 K, 101 kPa
Settings	viscosity [mPa·s]
x2 = 0.1332	0.6376 ± 0.19
x2 = 0.257	0.7283 ± 0.2
x2 = 0.3722	0.8149 ± 0.21
x2 = 0.4798	0.9229 ± 0.22
x2 = 0.5804	1.042 ± 0.23
x2 = 0.6748	1.16 ± 0.24
x2 = 0.7635	1.306 ± 0.26

CC(=O)CC(C)C + CCCCCCCO
viscosity [mPa·s], 100 kPa
Settings	x1 = 0.0823	x1 = 0.1682	x1 = 0.2346	x1 = 0.3569	x1 = 0.4379	x1 = 0.5614	x1 = 0.6493	x1 = 0.7489	x1 = 0.8505	x1 = 0.9471
293.15 K	5.46 ± 0.44	4.21 ± 0.34	3.56 ± 0.29	2.62 ± 0.21	2.19 ± 0.18	1.66 ± 0.13	1.37 ± 0.11	1.1 ± 0.09	0.86 ± 0.07	0.68 ± 0.06
303.15 K	4.09 ± 0.33	3.24 ± 0.26	2.78 ± 0.22	2.08 ± 0.17	1.76 ± 0.14	1.35 ± 0.11	1.13 ± 0.09	0.91 ± 0.07	0.72 ± 0.06	0.59 ± 0.05
313.15 K	3.09 ± 0.25	2.53 ± 0.2	2.2 ± 0.18	1.71 ± 0.14	1.45 ± 0.12	1.14 ± 0.09	0.96 ± 0.08	0.79 ± 0.06	0.63 ± 0.05	0.52 ± 0.04
323.15 K	2.37 ± 0.19	1.98 ± 0.16	1.76 ± 0.14	1.4 ± 0.11	1.22 ± 0.1	0.98 ± 0.08	0.83 ± 0.07	0.68 ± 0.06	0.56 ± 0.05	0.47 ± 0.04

CCCCCCO + CCCCCCCCCCCC
298.15 K, 101 kPa
Settings	viscosity [mPa·s]
x2 = 0.0555	3.93 ± 0.07
x2 = 0.0999	3.52 ± 0.06
x2 = 0.1555	3.06 ± 0.06
x2 = 0.1999	2.74 ± 0.06
x2 = 0.2554	2.38 ± 0.06
x2 = 0.2999	2.12 ± 0.06
x2 = 0.3555	1.85 ± 0.06
x2 = 0.3998	1.66 ± 0.06
x2 = 0.4555	1.47 ± 0.06
x2 = 0.4999	1.34 ± 0.06
x2 = 0.5554	1.21 ± 0.06
x2 = 0.5998	1.14 ± 0.06
x2 = 0.6554	1.07 ± 0.06
x2 = 0.6999	1.04 ± 0.06
x2 = 0.7555	1.02 ± 0.06
x2 = 0.7997	1.03 ± 0.06
x2 = 0.8555	1.06 ± 0.06
x2 = 0.8998	1.09 ± 0.06
x2 = 0.9555	1.15 ± 0.06

O=C1CCCCC1 + CCC(C)O
298.15 K, 101 kPa
Settings	viscosity [mPa·s]
x1 = 0.1006	2.33 ± 0.03
x1 = 0.209	1.9 ± 0.02
x1 = 0.3005	1.66 ± 0.02
x1 = 0.403	1.55 ± 0.02
x1 = 0.4997	1.51 ± 0.02
x1 = 0.6988	1.57 ± 0.02
x1 = 0.8007	1.66 ± 0.02
x1 = 0.8986	1.79 ± 0.02

CC(=O)CC(C)C + Cc1ccccc1
298.15 K, 101 kPa
Settings	viscosity [mPa·s]
x1 = 0.1094	0.545 ± 0.006
x1 = 0.207	0.541 ± 0.006
x1 = 0.3183	0.539 ± 0.006
x1 = 0.4196	0.538 ± 0.006
x1 = 0.5357	0.537 ± 0.006
x1 = 0.6441	0.544 ± 0.006
x1 = 0.7653	0.539 ± 0.006
x1 = 0.8774	0.541 ± 0.006

O=C1CCCCC1 + C1COCCO1
viscosity [mPa·s], 101 kPa
Settings	x1 = 0.099	x1 = 0.2022	x1 = 0.31	x1 = 0.4227	x1 = 0.5406	x1 = 0.6641	x1 = 0.728	x1 = 0.8607	x1 = 0.9295
293.15 K	1.323 ± 0.01	1.352 ± 0.011	1.396 ± 0.011	1.463 ± 0.011	1.56 ± 0.012	1.694 ± 0.013	1.782 ± 0.014	2.003 ± 0.015	2.148 ± 0.017
298.15 K	1.214 ± 0.0096	1.239 ± 0.0098	1.281 ± 0.01	1.341 ± 0.01	1.429 ± 0.011	1.544 ± 0.012	1.626 ± 0.013	1.816 ± 0.014	1.941 ± 0.015
303.15 K	1.12 ± 0.0089	1.142 ± 0.0091	1.184 ± 0.0094	1.235 ± 0.0097	1.324 ± 0.01	1.417 ± 0.011	1.489 ± 0.012	1.657 ± 0.013	1.769 ± 0.014
308.15 K	1.036 ± 0.0083	1.06 ± 0.0085	1.094 ± 0.0087	1.145 ± 0.0091	1.224 ± 0.0097	1.315 ± 0.01	1.373 ± 0.011	1.513 ± 0.012	1.618 ± 0.013
313.15 K	0.9598 ± 0.0077	0.9803 ± 0.0079	1.017 ± 0.0081	1.063 ± 0.0085	1.143 ± 0.0091	1.212 ± 0.0096	1.263 ± 0.0099	1.39 ± 0.011	1.497 ± 0.012

CCCCCCO + CCCCO
Settings	viscosity [mPa·s]
294.55 K, 100 kPa, x2 = 0.31	3.994

CCCCCC(=O)O + ClC(Cl)(Cl)Cl
298.15 K, 101 kPa
Settings	viscosity [mPa·s]
x1 = 0.07	0.966 ± 0.025
x1 = 0.13	1.033 ± 0.027
x1 = 0.19	1.108 ± 0.029
x1 = 0.25	1.188 ± 0.031
x1 = 0.47	1.548 ± 0.04
x1 = 0.57	1.743 ± 0.046
x1 = 0.67	1.927 ± 0.05
x1 = 0.84	2.343 ± 0.061

O=C1CCCCC1 + CCCCO
101 kPa
Settings	viscosity [mPa·s]
298.15 K, x1 = 0.0997	2.13 ± 0.03
298.15 K, x1 = 0.2002	1.87 ± 0.02
298.15 K, x1 = 0.3022	1.73 ± 0.02
298.15 K, x1 = 0.3878	1.66 ± 0.02
298.15 K, x1 = 0.5036	1.63 ± 0.02
298.15 K, x1 = 0.6016	1.64 ± 0.02
298.15 K, x1 = 0.6966	1.67 ± 0.02
298.15 K, x1 = 0.7992	1.74 ± 0.02
298.15 K, x1 = 0.8984	1.82 ± 0.02
303.15 K, x1 = 0.1001	1.855 ± 0.014
303.15 K, x1 = 0.2591	1.662 ± 0.013
303.15 K, x1 = 0.4202	1.556 ± 0.012
303.15 K, x1 = 0.5804	1.517 ± 0.013
303.15 K, x1 = 0.7265	1.534 ± 0.013
303.15 K, x1 = 0.8935	1.622 ± 0.014

CC(=O)CC(C)C + Cc1ccc(C)cc1
298.15 K, 101 kPa
Settings	viscosity [mPa·s]
x1 = 0.1409	0.59 ± 0.006
x1 = 0.226	0.583 ± 0.006
x1 = 0.3369	0.576 ± 0.006
x1 = 0.4463	0.569 ± 0.006
x1 = 0.5673	0.563 ± 0.006
x1 = 0.6366	0.559 ± 0.006
x1 = 0.8014	0.551 ± 0.006
x1 = 0.9061	0.546 ± 0.006
